Reference: ChEMBL document CHEMBL1909046, “DrugMatrix in vitro pharmacology data”

Experiments:
[1] = target: T1, Type-2 angiotensin II receptor (Homo sapiens, UniProt P50052); assay type: cell-based; conditions: cho-k1; also: in other assays of this panel Not Active means under 50% inhibition at 10 µM
T1 sequence (P50052 whole entry): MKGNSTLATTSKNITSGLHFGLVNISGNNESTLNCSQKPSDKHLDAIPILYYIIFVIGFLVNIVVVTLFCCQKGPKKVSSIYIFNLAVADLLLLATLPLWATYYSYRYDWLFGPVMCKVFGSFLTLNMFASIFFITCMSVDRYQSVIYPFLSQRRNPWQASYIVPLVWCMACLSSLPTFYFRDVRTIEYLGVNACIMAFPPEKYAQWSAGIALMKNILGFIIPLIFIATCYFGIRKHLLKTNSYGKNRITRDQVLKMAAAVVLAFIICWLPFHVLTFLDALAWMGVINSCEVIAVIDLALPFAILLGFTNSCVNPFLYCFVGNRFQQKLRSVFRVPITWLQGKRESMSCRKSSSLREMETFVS

[2] = target: T2, Polyunsaturated fatty acid lipoxygenase ALOX15 (Oryctolagus cuniculus, UniProt P12530); assay: biochemical; assay type: tissue-based, Reticulocytes; conditions: reticulocytes;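 also: inhibition of 15-lipoxygenase enzyme activity measured with linoleic acid as the substrate; in other assays of this panel Not Active means under 50% inhibition at 10 µM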
T2 sequence (P12530 whole entry): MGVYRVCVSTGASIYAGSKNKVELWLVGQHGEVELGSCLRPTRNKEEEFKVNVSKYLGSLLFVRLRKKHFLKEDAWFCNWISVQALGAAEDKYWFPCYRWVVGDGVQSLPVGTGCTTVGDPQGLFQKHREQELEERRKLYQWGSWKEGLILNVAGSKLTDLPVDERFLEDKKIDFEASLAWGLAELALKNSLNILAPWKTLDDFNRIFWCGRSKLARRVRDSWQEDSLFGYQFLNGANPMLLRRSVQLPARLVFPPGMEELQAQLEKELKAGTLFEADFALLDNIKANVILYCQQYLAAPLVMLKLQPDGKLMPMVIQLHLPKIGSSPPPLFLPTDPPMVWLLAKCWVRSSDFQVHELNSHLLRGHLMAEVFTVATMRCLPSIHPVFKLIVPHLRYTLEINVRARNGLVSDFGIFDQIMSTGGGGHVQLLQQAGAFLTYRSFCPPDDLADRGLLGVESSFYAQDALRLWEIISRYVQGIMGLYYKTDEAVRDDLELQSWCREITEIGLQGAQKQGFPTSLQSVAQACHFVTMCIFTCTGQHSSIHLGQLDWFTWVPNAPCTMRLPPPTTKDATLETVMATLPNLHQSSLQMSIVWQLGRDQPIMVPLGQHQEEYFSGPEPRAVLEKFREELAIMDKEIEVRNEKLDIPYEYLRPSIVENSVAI

[3] = target: T3, Amine oxidase [flavin-containing] A (Homo sapiens, UniProt P21397); assay: DRUGMATRIX: Monoamine Oxidase MAO-A enzyme inhibition (substrate: Kynuramine); parameters: species or system BTI-TN-5B1-4; conditions: bti-tn-5b1-4; Not Active = under 50% inhibition at 10 µM
T3 sequence (P21397 whole entry): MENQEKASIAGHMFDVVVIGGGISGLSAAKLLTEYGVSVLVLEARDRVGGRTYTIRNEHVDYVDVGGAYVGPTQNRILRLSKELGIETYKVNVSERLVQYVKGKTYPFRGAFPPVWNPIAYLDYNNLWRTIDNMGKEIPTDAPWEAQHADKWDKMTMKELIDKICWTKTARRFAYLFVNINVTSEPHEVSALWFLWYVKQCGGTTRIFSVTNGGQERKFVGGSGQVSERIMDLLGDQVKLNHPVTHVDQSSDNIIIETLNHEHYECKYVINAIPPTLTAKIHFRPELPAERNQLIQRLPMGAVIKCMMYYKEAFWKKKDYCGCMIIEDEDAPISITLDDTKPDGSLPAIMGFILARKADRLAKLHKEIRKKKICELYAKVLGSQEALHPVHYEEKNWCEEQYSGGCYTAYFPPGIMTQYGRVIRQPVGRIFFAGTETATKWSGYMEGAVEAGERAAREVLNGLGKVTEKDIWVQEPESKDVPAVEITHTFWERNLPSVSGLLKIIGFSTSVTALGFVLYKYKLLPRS

[4] = target: T4, Muscarinic acetylcholine receptor M2 (Homo sapiens, UniProt P08172); assay type: cell membranes, CHO-K1, Membrane; conditions: cho-k1; also: in other assays of this panel Not Active means under 50% inhibition at 10 µM
T4 sequence (P08172 whole entry): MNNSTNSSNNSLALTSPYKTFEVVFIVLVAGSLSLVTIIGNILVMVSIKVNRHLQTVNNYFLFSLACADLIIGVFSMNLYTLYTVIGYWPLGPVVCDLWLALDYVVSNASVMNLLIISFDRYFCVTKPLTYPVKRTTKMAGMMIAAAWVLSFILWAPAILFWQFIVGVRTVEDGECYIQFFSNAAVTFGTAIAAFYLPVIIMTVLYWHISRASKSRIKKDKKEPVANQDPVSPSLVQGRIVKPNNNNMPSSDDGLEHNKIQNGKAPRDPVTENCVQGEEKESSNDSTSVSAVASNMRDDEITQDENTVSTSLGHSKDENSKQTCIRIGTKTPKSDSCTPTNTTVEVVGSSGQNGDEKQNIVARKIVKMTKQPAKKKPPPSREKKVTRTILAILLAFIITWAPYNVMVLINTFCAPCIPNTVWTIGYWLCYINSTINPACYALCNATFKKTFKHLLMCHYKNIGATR

[5] = DRUGMATRIX: Nicotinic Acetylcholine radioligand binding (ligand: [125I] Epibatidine); assay type: cell membranes, Membrane; conditions: imr-32; Not Active = under 50% inhibition at 10 µM
[6] = DRUGMATRIX: Phorbol Ester radioligand binding (ligand: [3H] PDBu); assay type: cell membranes, Mus musculus, ICR, Brain, Membrane; conditions: Not Active = under 50% inhibition at 10 µM
[7] = DRUGMATRIX: Phosphodiesterase PDE4 enzyme inhibition (substrate: [3H]cAMP + cAMP); conditions: u-937; Not Active = under 50% inhibition at 10 µM
Interstitial collagenase = target: T5, Interstitial collagenase (Homo sapiens, UniProt P03956); assay type: tissue-based, Rheumatoid synovial fibroblasts;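 also: MMP-1 enzyme inhibition assay using a peptide substrate; in other assays of this panel Not Active means under 50% inhibition at 10 µM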
T5 sequence (P03956 whole entry): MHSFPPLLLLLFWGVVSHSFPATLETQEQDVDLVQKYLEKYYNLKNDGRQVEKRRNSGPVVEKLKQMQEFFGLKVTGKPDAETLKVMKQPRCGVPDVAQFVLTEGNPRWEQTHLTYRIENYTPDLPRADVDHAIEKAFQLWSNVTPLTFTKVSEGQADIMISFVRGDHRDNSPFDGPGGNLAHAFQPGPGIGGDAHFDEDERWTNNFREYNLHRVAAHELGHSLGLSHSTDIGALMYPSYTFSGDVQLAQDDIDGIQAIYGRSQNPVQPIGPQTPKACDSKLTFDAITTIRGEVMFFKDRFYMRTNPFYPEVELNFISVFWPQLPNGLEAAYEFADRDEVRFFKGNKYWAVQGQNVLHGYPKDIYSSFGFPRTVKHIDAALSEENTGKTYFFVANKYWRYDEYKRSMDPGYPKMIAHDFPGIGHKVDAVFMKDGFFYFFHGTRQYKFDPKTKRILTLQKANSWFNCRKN

Cc1cc(NS(=O)(=O)c2ccc(N)cc2)no1 [SULFAMETHOXAZOLE]
Not Active: IC50 [1] | IC50 [2] | IC50 [3] | IC50 [4] | IC50 [5] | Ki [5] | IC50 [6] | Ki [6] | IC50 [7] | Ki [7] | IC50 (Interstitial collagenase)

COc1c(C)c2c(c(O)c1C/C=C(\C)CCC(=O)OCCN1CCOCC1)C(=O)OC2 [MYCOPHENOLATE MOFETIL]
Not Active: IC50 [1] | IC50 [2] | IC50 [3] | IC50 [4] | IC50 [5] | Ki [5] | IC50 [6] | Ki [6] | IC50 [7] | Ki [7] | IC50 (Interstitial collagenase)

Nc1ccc(S(=O)(=O)Nc2ccnn2-c2ccccc2)cc1 [SULFAPHENAZOLE]
Not Active: IC50 [1] | IC50 [2] | IC50 [3] | IC50 [4] | IC50 [5] | Ki [5] | IC50 [6] | Ki [6] | IC50 [7] | Ki [7] | IC50 (Interstitial collagenase)

CC1CN(c2cc3c(cc2F)c(=O)c(C(=O)O)cn3-c2ccc(F)cc2F)CCN1 (stereo unspecified) [TEMAFLOXACIN]
Not Active: IC50 [1] | IC50 [2] | IC50 [3] | IC50 [4] | IC50 [5] | Ki [5] | IC50 [6] | Ki [6] | IC50 [7] | Ki [7] | IC50 (Interstitial collagenase)

IVERMECTIN
Not Active: IC50 [1] | Ki [1] | IC50 [2] | Ki [2] | IC50 [3] | Ki [3] | IC50 [4] | Ki [4] | IC50 [5] | Ki [5] | IC50 [6] | Ki [6] | IC50 [7] | Ki [7] | IC50 (Interstitial collagenase) | Ki (Interstitial collagenase)

CN[C@H](CC(C)C)C(=O)N[C@H]1C(=O)N[C@@H](CC(N)=O)C(=O)N[C@H]2C(=O)N[C@H]3C(=O)N[C@H](C(=O)N[C@H](C(=O)O)c4cc(O)cc(O)c4-c4cc3ccc4O)[C@H](O)c3ccc(c(Cl)c3)Oc3cc2cc(c3O[C@@H]2O[C@H](CO)[C@@H](O)[C@H](O)[C@H]2O[C@H]2C[C@](C)(N)[C@H](O)[C@H](C)O2)Oc2ccc(cc2Cl)[C@H]1O [VANCOMYCIN]
Not Active: IC50 [1] | IC50 [2] | IC50 [3] | IC50 [4] | IC50 [5] | Ki [5] | IC50 [6] | Ki [6] | IC50 [7] | Ki [7] | IC50 (Interstitial collagenase)

CC(=O)S[C@@H]1CC2=CC(=O)CC[C@]2(C)[C@H]2CC[C@@]3(C)[C@@H](CC[C@@]34CCC(=O)O4)[C@H]12 [SPIRONOLACTONE]
Not Active: IC50 [1] | IC50 [2] | IC50 [3] | IC50 [4] | IC50 [5] | Ki [5] | IC50 [6] | Ki [6] | IC50 [7] | Ki [7] | IC50 (Interstitial collagenase)

COc1cc(C(=O)NC2CCCNC2)cc(OC)c1OC (stereo unspecified) [TROXIPIDE]
Not Active: IC50 [1] | IC50 [2] | IC50 [3] | IC50 [4] | IC50 [5] | Ki [5] | IC50 [6] | Ki [6] | IC50 [7] | Ki [7] | IC50 (Interstitial collagenase)

Cc1ccc(C(=O)C(C)CN2CCCCC2)cc1 (stereo unspecified) [TOLPERISONE]
Not Active: IC50 [1] | IC50 [2] | IC50 [3] | IC50 [4] | IC50 [5] | Ki [5] | IC50 [6] | Ki [6] | IC50 [7] | Ki [7] | IC50 (Interstitial collagenase)

NC(=O)c1ccccc1O [SALICYLAMIDE]
Not Active: IC50 [1] | IC50 [2] | IC50 [3] | IC50 [4] | IC50 [5] | Ki [5] | IC50 [6] | Ki [6] | IC50 [7] | Ki [7] | IC50 (Interstitial collagenase)

CCC[C@@H]1C[C@@H](C(=O)N[C@@H]([C@H]2O[C@H](SC)[C@H](O)[C@@H](O)[C@H]2O)[C@@H](C)O)N(C)C1 [LINCOMYCIN]
Not Active: IC50 [1] | IC50 [2] | IC50 [3] | IC50 [4] | IC50 [5] | Ki [5] | IC50 [6] | Ki [6] | IC50 [7] | Ki [7] | IC50 (Interstitial collagenase)
